The subject of one experiment is HBeAg. The experiment is described as follows: microbe, parasite or virus in culture. The conditions noted are these: Hepatitis B virus, read-out: average inhibitory rate for HBeAg.
Another experiment relates to HBsAg. Nature of the experiment: microbe, parasite or virus in culture. The conditions noted are these: Hepatitis B virus, read-out: average inhibitory rate for HBsAg.

Experimental findings from US20050222258A1, “Pharmaceuticals comprising shikonins as active constituent” (priority 2003, published 2005) are described below.

Consider `CC(C)=CCC(OC(=O)C=C(C)C)C1=CC(=O)c2c(O)ccc(O)c2C1=O` (stereo not drawn) [β,β-dimethylacrylshikonin], for which the inhibition at 30 µg/mL in the experiment with HBeAg was determined as 91.6%; with HBsAg, 96.3%.
